According to US9708251B2, “Unsaturated fatty alcohol alkoxylates from natural oil metathesis” (Stepan Company, priority 2012, dated 2017):

Columns and labels:
Format in all cases: physicochemical
[1] = Emulsion stability testing of nonionic emulsifiers, Hallcomid solvent series; set-up: key: C = creamy; CO = creamy oil; O = oil; GC = gritty cream; NS = no separation; OC = oily cream; conditions: Bifenthrin 240 g/L in Hallcomid M-8-10, 34 ppm water
Experimental: (§1) Nonionic samples contain a low amount of water (<1%) and are prepared as emulsifiable concentrates with three pesticides using two different solvent systems. In the aromatic solvent series, the nonionic sample replaces Toximul® 8240 (castor oil ethoxylate, 36 POE, Stepan), and in the Hallcomid™ (N,N-dimethylcaprylamide/N,N-dimethylcapramide, Stepan) solvent series, the nonionic sample replaces Ninex® MT-630F.
(§2) Hallcomid Solvent Series.
(§3) Sample preparation: The surfactants are combined and stirred until homogeneous, with the nonionic sample melted if needed prior to combination. Controls 1-3 are made by using Ninex MT-630F in the amounts indicated instead of the nonionic sample.
(§4) Emulsion Stability Testing
(§5) A Mohr pipette is used to feed pesticide/surfactant concentrates to each cylinder.

[2] = Surfactant phase behavior study (cross-polarized microscopy); conditions: room temperature
Experimental: Phase behavior is observed using an Olympus BH-2 cross-polarized microscope at 100-400× and room temperature (20° C. to 22° C.). The inventive monounsaturated alcohol ethoxylates are compared with their saturated analogs.
Samples are prepared by diluting the most concentrated product gradually with deionized water. When the surfactant concentration approaches a phase transition, the concentration is varied at 2-4% intervals to estimate the phase boundary. The actives level reported in Table 4 for each phase boundary is within ±5% of the true boundary.
Samples are loaded between a microscope slide and cover glass and are allowed to equilibrate before observation. Microscopic texture is analyzed and used to determine the phase. For some samples, an AR 2000 rheometer (TA Instruments) is used to measure viscosity at 25° C. to further verify phase behavior.

[3] = Emulsion stability testing of nonionic emulsifiers, aromatic solvent series; set-up: key to 24 h separation, appearance / 1 h separation, appearance / 1 h separation, amount: C = creamy; CO = creamy oil; O = oil; GC = gritty cream; NS = no separation; OC = oily cream; key to Spon. (spontaneity): G = good; F = fair; P = poor
Experimental: as §1
Sample preparation: Ninate® 60E (calcium alkylbenzenesulfonate, Stepan) and the test sample are stirred until homogeneous. […] Controls 1-3 are made by using Toximul 8240 in the amounts indicated instead of the nonionic sample.
Formulations: • 1. Bifenthrin, 240 g/L (2.99 g), Aromatic 100 (ExxonMobil, 8.05 g), Ninate 60E (0.38 g), and nonionic sample or Toximul 8240 (0.58 g). • 2. 2,4-D ester, 480 g/L (8.90 g), Exxsol® D-110 (ExxonMobil, 2.50 g), Ninate 60E (0.36 g), and nonionic sample or Toximul 8240 (0.24 g). • 3. Tebuconazole, 360 g/L (4.45 g), N-methyl-2-pyrrolidone (6.35 g), Ninate 60E (0.48 g), nonionic sample or Toximul 8240 (0.72 g).
as §4, §5

[4] = Emulsion stability testing of nonionic emulsifiers, Hallcomid solvent series; set-up: key to 24 h separation, appearance / 1 h separation, appearance / 1 h separation, amount: C = creamy; CO = creamy oil; O = oil; GC = gritty cream; NS = no separation; OC = oily cream; key to Spon. (spontaneity): G = good; F = fair; P = poor
Experimental: as §1, §2, §3, §4, §5

[5] = 2,4-D ester 480 g/L in Exxsol D-110, 34 ppm water
[6] = 2,4-D ester 480 g/L in Exxsol D-110, 1000 ppm water
[7] = Bifenthrin 240 g/L in Aromatic 100, 34 ppm water
[8] = Bifenthrin 240 g/L in Aromatic 100, 1000 ppm water
[9] = Tebuconazole 360 g/L in N-methyl-2-pyrrolidone, 34 ppm water
[10] = Tebuconazole 360 g/L in N-methyl-2-pyrrolidone, 1000 ppm water
[11] = 2,4-D diester 480 g/L in Hallcomid M-8-10, 34 ppm water
[12] = 2,4-D diester 480 g/L in Hallcomid M-8-10, 1000 ppm water
[13] = Bifenthrin 240 g/L in Hallcomid M-8-10, 34 ppm water
[14] = Bifenthrin 240 g/L in Hallcomid M-8-10, 1000 ppm water
[15] = Tebuconazole 360 g/L in Hallcomid M-8-10, 34 ppm water
[16] = Tebuconazole 360 g/L in Hallcomid M-8-10, 1000 ppm water

Structure (SMILES): CCC=CCCCCCCCCOCCOCCOCCO (mixture of isomers) [A12-7]
- 24 h separation, amount [1]: NS
- combined isotropic phases (clear and opaque), share of the total [2]: about 66%
- Isotropic Clear phase region ([2]; in deionized water): 74-100 % Actives Level
- Isotropic Opaque phase region ([2]; in deionized water): 0-40 % Actives Level
- Lamellar phase region ([2]; in deionized water): 40-74 % Actives Level
- 1 h separation, amount [3, 5]: 3.2 mL
- 1 h separation, appearance [3, 5]: C
- 24 h separation, amount [3, 5]: 5.5 mL
- 24 h separation, appearance [3, 5]: C
- Spon. (spontaneity) [3, 5]: P
- 1 h separation, amount [3, 6]: 4.2 mL
- 1 h separation, appearance [3, 6]: O
- 24 h separation, amount [3, 6]: 0.8 O, 3.3 CO
- Spon. (spontaneity) [3, 6]: P
- 1 h separation, amount [3, 7]: 8.8 mL
- 1 h separation, appearance [3, 7]: C
- 24 h separation, amount [3, 7]: 6.8 mL
- 24 h separation, appearance [3, 7]: C
- Spon. (spontaneity) [3, 7]: P
- 1 h separation, amount [3, 8]: 4.5 mL
- 1 h separation, appearance [3, 8]: O
- 24 h separation, amount [3, 8]: 4.9 mL
- 24 h separation, appearance [3, 8]: O
- Spon. (spontaneity) [3, 8]: P
- 1 h separation, amount [3, 9]: 2.3 mL
- 1 h separation, appearance [3, 9]: C
- 24 h separation, amount [3, 9]: 3 mL
- 24 h separation, appearance [3, 9]: GC
- Spon. (spontaneity) [3, 9]: P
- 1 h separation, amount [3, 10]: 2.6 mL
- 1 h separation, appearance [3, 10]: C
- 24 h separation, amount [3, 10]: 3.2 mL
- 24 h separation, appearance [3, 10]: GC
- Spon. (spontaneity) [3, 10]: P
- 1 h separation, amount [4, 11]: 6 mL
- 1 h separation, appearance [4, 11]: C
- 24 h separation, amount [4, 11]: 10 mL
- 24 h separation, appearance [4, 11]: C
- Spon. (spontaneity) [4, 11]: F
- 1 h separation, amount [4, 12]: 6.7 mL
- 1 h separation, appearance [4, 12]: C
- 24 h separation, amount [4, 12]: 8.2 mL
- 24 h separation, appearance [4, 12]: C
- Spon. (spontaneity) [4, 12]: F
- 1 h separation, amount [4, 13]: NS
- Spon. (spontaneity) [4, 13]: G
- 1 h separation, amount [4, 14]: 10.2 mL
- 1 h separation, appearance [4, 14]: C
- 24 h separation, amount [4, 14]: 2 O, 3.5 CO
- Spon. (spontaneity) [4, 14]: F
- 1 h separation, amount [4, 15]: 2 mL
- 1 h separation, appearance [4, 15]: C
- 24 h separation, amount [4, 15]: 5.1 mL
- 24 h separation, appearance [4, 15]: C
- Spon. (spontaneity) [4, 15]: F
- 1 h separation, amount [4, 16]: 2.7 mL
- 1 h separation, appearance [4, 16]: C
- 24 h separation, amount [4, 16]: 4.9 mL
- 24 h separation, appearance [4, 16]: C
- Spon. (spontaneity) [4, 16]: F

Structure (SMILES): C=CCCCCCCCCOCCO [A10-4]
- 24 h separation, amount [1]: NS
- 1 h separation, amount [3, 5]: 4.5 mL
- 1 h separation, appearance [3, 5]: CO
- 24 h separation, amount [3, 5]: 2 O, 1 CO, 2 C
- Spon. (spontaneity) [3, 5]: P
- 1 h separation, amount [3, 6]: 3.8 mL
- 1 h separation, appearance [3, 6]: O
- 24 h separation, amount [3, 6]: 4 mL
- 24 h separation, appearance [3, 6]: O
- Spon. (spontaneity) [3, 6]: P
- 1 h separation, amount [3, 7]: 7.5 mL
- 1 h separation, appearance [3, 7]: CO
- 24 h separation, amount [3, 7]: 3 O, 3 CO
- Spon. (spontaneity) [3, 7]: P
- 1 h separation, amount [3, 8]: 6 mL
- 1 h separation, appearance [3, 8]: O
- 24 h separation, amount [3, 8]: 6 mL
- 24 h separation, appearance [3, 8]: O
- Spon. (spontaneity) [3, 8]: P
- 1 h separation, amount [3, 9]: 2 mL
- 1 h separation, appearance [3, 9]: GC
- 24 h separation, amount [3, 9]: 3 mL
- 24 h separation, appearance [3, 9]: GC
- Spon. (spontaneity) [3, 9]: P
- 1 h separation, amount [3, 10]: 3 mL
- 1 h separation, appearance [3, 10]: GC
- 24 h separation, amount [3, 10]: 4 mL
- 24 h separation, appearance [3, 10]: GC
- Spon. (spontaneity) [3, 10]: P
- 1 h separation, amount [4, 11]: 6 mL
- 1 h separation, appearance [4, 11]: C
- 24 h separation, amount [4, 11]: 9.5 mL
- 24 h separation, appearance [4, 11]: C
- Spon. (spontaneity) [4, 11]: F
- 1 h separation, amount [4, 12]: 6.5 mL
- 1 h separation, appearance [4, 12]: C
- 24 h separation, amount [4, 12]: 8 mL
- 24 h separation, appearance [4, 12]: C
- Spon. (spontaneity) [4, 12]: F
- 1 h separation, amount [4, 13]: NS
- Spon. (spontaneity) [4, 13]: F
- 1 h separation, amount [4, 14]: Tr. GC, 12 C
- 24 h separation, amount [4, 14]: 3.5 O, 3 CO
- Spon. (spontaneity) [4, 14]: F
- 1 h separation, amount [4, 15]: 3 mL
- 1 h separation, appearance [4, 15]: C
- 24 h separation, amount [4, 15]: 6.5 mL
- 24 h separation, appearance [4, 15]: C
- Spon. (spontaneity) [4, 15]: F
- 1 h separation, amount [4, 16]: 4 mL
- 1 h separation, appearance [4, 16]: C
- 24 h separation, amount [4, 16]: 5.8 mL
- 24 h separation, appearance [4, 16]: C
- Spon. (spontaneity) [4, 16]: F
